The source of these data is US20240327412A1, “FACTOR XIIA INHIBITORS” (KALVISTA PHARMACEUTICALS LIMITED, priority 2021, published 2024).

pIC50: −log10 of the molar value. Some results are limits rather than exact numbers.

Assay type in all cases: biochemical
In one assay the target is T1, Plasma Kallikrein (Homo sapiens, UniProt P03952).
T1 construct: FXIIa converts plasma prekallikrein (PK) to plasma kallikrein (PKa)
Put plainly: Related protease inhibition: Plasma Kallikrein (fluorogenic substrate at Km). As to conditions: class symbols per Table 18, read-out: IC50 (human PKal). A digest of the protocol: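 Read-out is the linear per-minute rise in fluorescence liberated from substrate, monitored for 5 min at 25° C and expressed as % activity. Substrate sat at Km, except for FXIa, which used 100 μM. IC50 values come from the concentration producing half-maximal inhibition.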

A further assay deals with FXa (Homo sapiens, UniProt P00742). The assay is described as follows: Related protease inhibition: FXa (fluorogenic substrate at Km). As to conditions: class symbols per Table 18. The protocol:
(§1) In vitro inhibition of related proteases was determined using an IC50 assay based on standard literature methods (see e.g. Shori et al., Biochem. Pharmacol., 1992, 43, 1209; Bouckaert et al., European Journal of Medicinal Chemistry 110 (2016) 181). Human serine protease enzyme Plasma Kallikrein, KLK1, FXa, Plasmin, Thrombin and Trypsin were assayed for enzymatic activity using an appropriate fluorogenic substrate at Km concentration, FXIa at fixed substrate concentration of 100 μM and various concentrations of the test compound. Protease activity was measured by monitoring the accumulation of liberated fluorescence from the substrate over 5 min at 25° C. The linear rate of fluorescence increase per minute was expressed as percentage (%) activity. IC50 values were calculated as the concentration of inhibitor giving 50% inhibition of the uninhibited enzyme activity (100%).

A further assay concerns the target KLK1 (Homo sapiens, UniProt P06870). Put plainly: Related protease inhibition: KLK1 (fluorogenic substrate at Km). The conditions noted are these: class symbols per Table 18. How it is done:
as §1

A further assay concerns the target Thrombin (Homo sapiens, UniProt P00734). Put plainly: Related protease inhibition: Thrombin (fluorogenic substrate at Km). The conditions noted are these: class symbols per Table 18. The protocol:
as §1

The next assay has as its target T2, Human Factor XIIa (Homo sapiens, UniProt P00748).
T2 construct: Proteolytic cleavage of FXII to heavy and light chains of FXIIa dramatically increases catalytic activity; purchased Enzyme Research Laboratories
T2 sequence (P00748 373-615 limits assumed): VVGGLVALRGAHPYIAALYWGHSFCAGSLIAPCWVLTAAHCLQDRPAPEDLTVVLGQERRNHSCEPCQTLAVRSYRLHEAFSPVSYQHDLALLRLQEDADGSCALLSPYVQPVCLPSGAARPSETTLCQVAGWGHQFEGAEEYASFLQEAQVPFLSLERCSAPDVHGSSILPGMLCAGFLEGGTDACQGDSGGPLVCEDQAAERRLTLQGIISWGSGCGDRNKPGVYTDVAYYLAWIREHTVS
T2 sequence (P00748 20-372 partner limits assumed): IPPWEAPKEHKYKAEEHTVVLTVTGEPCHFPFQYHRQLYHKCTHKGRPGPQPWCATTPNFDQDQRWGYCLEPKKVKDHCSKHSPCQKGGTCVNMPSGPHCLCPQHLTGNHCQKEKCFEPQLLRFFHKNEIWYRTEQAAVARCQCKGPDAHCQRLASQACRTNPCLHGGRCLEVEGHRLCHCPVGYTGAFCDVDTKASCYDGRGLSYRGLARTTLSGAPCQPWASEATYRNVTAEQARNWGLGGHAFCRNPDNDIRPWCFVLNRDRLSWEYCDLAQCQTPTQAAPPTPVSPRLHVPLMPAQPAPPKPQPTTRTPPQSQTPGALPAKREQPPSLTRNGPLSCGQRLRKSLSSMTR
The assay is described as follows: Determination of FXIIa inhibition (fluorogenic substrate H-DPro-Phe-Arg-AFC, IC50 assay). The conditions noted are these: substrate at Km concentration, 25° C.; category scale; read-out: Human FXII IC50 (nm). A digest of the protocol:
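Human FXIIa incubated at 25° C. with fluorogenic H-DPro-Phe-Arg-AFC at its Km concentration plus varying compound levels. Linear fluorescence increase over 5 min taken as % activity; IC50 is concentration halving uninhibited activity.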

T1 sequence (P03952 391-638 limits assumed): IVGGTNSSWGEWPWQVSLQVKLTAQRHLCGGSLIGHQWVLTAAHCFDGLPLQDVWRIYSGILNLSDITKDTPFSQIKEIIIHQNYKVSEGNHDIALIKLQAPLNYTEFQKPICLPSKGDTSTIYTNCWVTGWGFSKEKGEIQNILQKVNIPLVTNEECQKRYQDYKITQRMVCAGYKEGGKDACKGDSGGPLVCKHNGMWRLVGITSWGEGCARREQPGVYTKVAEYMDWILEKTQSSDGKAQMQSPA
T1 sequence (P03952 20-390 partner limits assumed): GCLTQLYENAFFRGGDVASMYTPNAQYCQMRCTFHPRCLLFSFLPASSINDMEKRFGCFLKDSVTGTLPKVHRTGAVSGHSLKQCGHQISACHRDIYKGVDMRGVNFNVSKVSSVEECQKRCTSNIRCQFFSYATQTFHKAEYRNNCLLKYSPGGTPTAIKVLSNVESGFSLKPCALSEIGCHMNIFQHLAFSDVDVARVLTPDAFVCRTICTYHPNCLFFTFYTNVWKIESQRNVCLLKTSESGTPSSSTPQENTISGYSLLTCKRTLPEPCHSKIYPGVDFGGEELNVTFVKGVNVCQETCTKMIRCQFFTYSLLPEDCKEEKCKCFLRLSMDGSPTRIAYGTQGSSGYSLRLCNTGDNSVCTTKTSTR
Chain of FXa (P00742 235-488 limits assumed): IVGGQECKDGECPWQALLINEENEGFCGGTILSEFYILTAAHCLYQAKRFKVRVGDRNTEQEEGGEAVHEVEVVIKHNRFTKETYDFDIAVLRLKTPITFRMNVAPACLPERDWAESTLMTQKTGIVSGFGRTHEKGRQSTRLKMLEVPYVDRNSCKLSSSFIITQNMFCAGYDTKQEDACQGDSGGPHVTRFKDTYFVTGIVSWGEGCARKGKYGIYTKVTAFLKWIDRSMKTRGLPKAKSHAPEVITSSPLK
Chain of FXa (P00742 41-179 partner limits assumed): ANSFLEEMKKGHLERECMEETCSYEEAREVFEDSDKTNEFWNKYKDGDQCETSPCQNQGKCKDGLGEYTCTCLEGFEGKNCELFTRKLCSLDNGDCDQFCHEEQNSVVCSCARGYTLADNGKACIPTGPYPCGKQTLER
Chain of KLK1 (P06870 25-262): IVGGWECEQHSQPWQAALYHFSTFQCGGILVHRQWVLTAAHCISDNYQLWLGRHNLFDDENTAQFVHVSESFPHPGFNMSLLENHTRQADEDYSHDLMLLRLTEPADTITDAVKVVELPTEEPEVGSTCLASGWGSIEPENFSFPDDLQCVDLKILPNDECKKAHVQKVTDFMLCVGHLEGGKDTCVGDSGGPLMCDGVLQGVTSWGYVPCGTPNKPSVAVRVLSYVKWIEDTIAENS

As to `Clc1cccc(NCC23CC(COc4ccn5ccnc5c4)(CCO2)C3)c1` [Example 10919, 3-chloro-N-((5-((imidazo[1,2-a]pyridin-7-yloxy)methyl)-2-oxabicyclo[3.1.1]heptan-1-yl)methyl)aniline], the figures for the negative logarithm of the IC50 (pIC50) on Plasma Kallikrein, at FXa and at KLK1 were under 4.40, under 4.40 and under 4.00, respectively.

As for `Cc1cc2c(NCC34CC(COc5ccn6ccnc6c5)(CCO3)C4)ccnc2[nH]1` [Example 10907, N-[[5-(Imidazo[1,2-a]pyridin-7-yloxymethyl)-2-oxabicyclo[3.1.1]heptan-1-yl]methyl]-2-methyl-1H-pyrrolo[2,3-b]pyridin-4-amine], the pIC50 is under 4.40 at Thrombin; under 4.40 at Plasma Kallikrein; 5.52 to 6.00 on Human Factor XIIa; under 4.40 on FXa; under 4.40 against KLK1.

Regarding `Nc1nccc2c(NCC34CC(COc5ccc6nnc(C(F)F)n6n5)(CO3)C4)cccc12` [Example 6608, N5-((4-(((3-(difluoromethyl)-[1,2,4]triazolo[4,3-b]pyridazin-6-yl)oxy)methyl)-2-oxabicyclo[2.1.1]hexan-1-yl)methyl)isoquinoline-1,5-diamine], the pIC50 is under 4.40 at Thrombin; under 4.40 on Plasma Kallikrein; 6.00 to 6.52 at Human Factor XIIa; under 4.40 against FXa; 5.00 to 5.52 on KLK1.

`Cc1cn2ccnc2cc1OCC12CCOC(CNc3cccc4c(N)nccc34)(C1)C2` [Example 10920, N5-((5-(((6-methylimidazo[1,2-a]pyridin-7-yl)oxy)methyl)-2-oxabicyclo[3.1.1]heptan-1-yl)methyl)isoquinoline-1,5-diamine]: the pIC50 at Plasma Kallikrein was 5.00 to 5.52; at Human Factor XIIa it was 6.52 to 7.00; at FXa it was 4.40 to 5.00; against KLK1 it was 5.00 to 5.52.

With `Cc1cn2ccc(OCC34CC(CNc5cccc6c(N)nccc56)(C3)C4)cc2n1` [Example 1006, N5-((3-(((2-Methylimidazo[1,2-a]pyridin-7-yl)oxy)methyl)bicyclo[1.1.1]pentan-1-yl)methyl)isoquinoline-1,5-diamine], the negative-log IC50 (pIC50) was 4.40 to 5.00 on Thrombin; under 4.40 on Plasma Kallikrein; 6.52 to 7.00 on Human Factor XIIa; 5.52 to 6.00 at FXa; 5.52 to 6.00 on KLK1.

Take `c1cc2cc(NCC34CC(COc5ccn6ccnc6c5)(C3)C4)ccc2cn1` [Example 1011, N-((3-((imidazo[1,2-a]pyridin-7-yloxy)methyl)bicyclo[1.1.1]pentan-1-yl)methyl)isoquinolin-6-amine]: the pIC50 against Thrombin was 4.40 to 5.00; on Plasma Kallikrein, under 4.00; at Human Factor XIIa, 4.40 to 5.00; on FXa, 5.52 to 6.00; against KLK1, 4.40 to 5.00.

For the compound `Cn1ccc(OCC23CN(C(=O)Oc4ccccc4)C(CNc4cccc5c(N)nccc45)(C2)C3)cc1=O` [Example 12008, phenyl 1-(((1-aminoisoquinolin-5-yl)amino)methyl)-4-(((1-methyl-2-oxo-1,2-dihydropyridin-4-yl)oxy)methyl)-2-azabicyclo[2.1.1]hexane-2-carboxylate], the pIC50 on Plasma Kallikrein is under 5.40; on Human Factor XIIa, 7.00 to 8.00; against FXa it was under 4.40; at KLK1, 5.52 to 6.00.

For `CC(=O)N1CC2(COc3ccn(C)c(=O)c3)CC1(CNc1cccc3c(N)nccc13)C2` [Example 12009, 4-((2-acetyl-1-(((1-aminoisoquinolin-5-yl)amino)methyl)-2-azabicyclo[2.1.1]hexan-4-yl)methoxy)-1-methylpyridin-2(1H)-one], the pIC50 at Plasma Kallikrein is under 5.40; at Human Factor XIIa, 7.00 to 8.00; against FXa, under 4.40; on KLK1, 4.40 to 5.00.

On to `CN1Cc2ccc(OCC34CC(CNc5cccc6c(N)nccc56)(CO3)C4)cc2C1=O` [Example 2211, 6-((4-(((1-aminoisoquinolin-5-yl)amino)methyl)-2-oxabicyclo[2.1.1]hexan-1-yl)methoxy)-2-methylisoindolin-1-one], for which the pIC50 was under 5.40 on Plasma Kallikrein, 6.52 to 7.00 on Human Factor XIIa, under 4.40 at FXa and 5.52 to 6.00 at KLK1.

With `Nc1nccc2c(NCC34CC(COc5ccn6ccnc6n5)(CO3)C4)cccc12` [Example 6614, N5-((4-((imidazo[1,2-a]pyrimidin-7-yloxy)methyl)-2-oxabicyclo[2.1.1]hexan-1-yl)methyl)isoquinoline-1,5-diamine], the pIC50 at Plasma Kallikrein was under 5.40; on Human Factor XIIa, 6.52 to 7.00; at FXa, under 4.40; on KLK1, 5.00 to 5.52.

Consider `Nc1nccc2c(NCC34CCCC(COc5ccc6nccn6c5)(C3)C4)cccc12` [Example 10942, N5-((5-((imidazo[1,2-a]pyridin-6-yloxy)methyl)bicyclo[3.1.1]heptan-1-yl)methyl)isoquinoline-1,5-diamine], for which the pIC50 is 6.52 to 7.00 at Human Factor XIIa, under 4.40 against FXa and 5.00 to 5.52 against KLK1.

In the case of `Cc1cc(OCC23COC(CNc4cccc5c(N)nccc45)(C2)C3)cn2ccnc12` [Example 6617, N5-((4-(((8-methylimidazo[1,2-a]pyridin-6-yl)oxy)methyl)-2-oxabicyclo[2.1.1]hexan-1-yl)methyl)isoquinoline-1,5-diamine], the pIC50 at Plasma Kallikrein was under 4.40; on Human Factor XIIa it was 7.00 to 8.00; against FXa, 4.40 to 5.00; at KLK1, 5.00 to 5.52.

Regarding `Cn1ccc(OCC23CC(CNc4cccc5c(N)nccc45)(CN2C(=O)OCc2ccccc2)C3)cc1=O` [Example 13001, benzyl 4-(((1-aminoisoquinolin-5-yl)amino)methyl)-1-(((1-methyl-2-oxo-1,2-dihydropyridin-4-yl)oxy)methyl)-2-azabicyclo[2.1.1]hexane-2-carboxylate], the pIC50 at Plasma Kallikrein is under 4.40; at Human Factor XIIa, 7.00 to 8.00; on FXa it was under 5.40; against KLK1, under 5.40.

Turning to `Cn1ccc(OCC23CNC(CNc4cccc5c(N)nccc45)(C2)C3)cc1=O` [Example 12007, 4-((1-(((1-aminoisoquinolin-5-yl)amino)methyl)-2-azabicyclo[2.1.1]hexan-4-yl)methoxy)-1-methylpyridin-2(1H)-one], the pIC50 was under 5.40 at Plasma Kallikrein, 7.00 to 8.00 on Human Factor XIIa, under 4.40 against FXa and 4.40 to 5.00 against KLK1.

`Clc1ccc(NCC23CC(COc4ccn5ccnc5c4)(CCO2)C3)cc1` [Example 10918, 4-chloro-N-((5-((imidazo[1,2-a]pyridin-7-yloxy)methyl)-2-oxabicyclo[3.1.1]heptan-1-yl)methyl)aniline]: the pIC50 at Plasma Kallikrein is under 4.40; against FXa, under 4.40; against KLK1 it was under 4.00.

For `Nc1nccc2c(NCC34CC(COc5ccc6nc(C(F)(F)F)cn6n5)(CO3)C4)cccc12` [Example 6615, N5-((4-(((2-(trifluoromethyl)imidazo[1,2-b]pyridazin-6-yl)oxy)methyl)-2-oxabicyclo[2.1.1]hexan-1-yl)methyl)isoquinoline-1,5-diamine], the negative-log IC50 (pIC50) at Human Factor XIIa is 5.00 to 5.52; at FXa, under 4.40; on KLK1 it was 5.00 to 5.52.

In the case of `Nc1nccc2c(NCC34CC(COc5cn6ccnc6cn5)(CO3)C4)cccc12` [Example 6616, N5-((4-((imidazo[1,2-a]pyrazin-6-yloxy)methyl)-2-oxabicyclo[2.1.1]hexan-1-yl)methyl)isoquinoline-1,5-diamine], the results for the pIC50 on Human Factor XIIa, on FXa and on KLK1 were 6.00 to 6.52, under 4.40 and 5.00 to 5.52, respectively.

A word on the pIC50: it is the IC50 on a negative log10 scale, so that one unit is a factor of ten.
